Experimental data reported in PubChem BioAssay AID330 (DTP/NCI, 2004).
“And” between values parts separate entries of the source, which are not always exact repeats. Equal values may be shown once. Inconclusive results and toxic doses are left out.

Tested on: P388 leukemia ip, CD2F1 mice, survival T/C
Experiment: NCI In Vivo Anticancer Drug Screen. Data for tumor model P388 Leukemia (intraperitoneal) in CD2F1 (CDF1) mice
Conditions: endpoint: median survival time, higher = longer survival
Method in brief: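 Mice carrying the transplanted tumor received test compound or vehicle. Survival was recorded in each group, and the value is the treated-group measurement divided by that of the vehicle-treated control group.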

[1] = dose: 15.0 mg/kg/injection, schedule: Q01DX005 (ip), vehicle: Klucel (hydroxypropylcellulose) (HPC)
[2] = dose: 30.0 mg/kg/injection, schedule: Q01DX005 (ip), vehicle: Klucel (hydroxypropylcellulose) (HPC)
[3] = dose: 60.0 mg/kg/injection, schedule: Q01DX005 (ip), vehicle: Klucel (hydroxypropylcellulose) (HPC)
[4] = dose: 60.0 mg/kg/injection, schedule: Q01DX005 (ip), vehicle: saline with Tween-80
[5] = dose: 240.0 mg/kg/injection, schedule: Q01DX005 (ip), vehicle: saline with Tween-80
[6] = dose: 50.0 mg/kg/injection, schedule: Q01DX005 (ip), vehicle: saline with Tween-80
[7] = dose: 100.0 mg/kg/injection, schedule: Q01DX005 (ip), vehicle: saline with Tween-80
[8] = dose: 200.0 mg/kg/injection, schedule: Q01DX005 (ip), vehicle: saline with Tween-80
[9] = dose: 120.0 mg/kg/injection, schedule: Q01DX005 (ip), vehicle: saline with Tween-80

CCOc1ccc(NS(=O)(=O)c2ccc(N)cc2)cc1CN(CCCl)CCCl
T/C (dose: 100.0 mg/kg/injection, schedule: Q01DX001 (ip), vehicle: saline with Tween-80): 99 % of control
T/C (dose: 200.0 mg/kg/injection, schedule: Q01DX001 (ip), vehicle: saline with Tween-80): 99 % of control
T/C (dose: 400.0 mg/kg/injection, schedule: Q01DX001 (ip), vehicle: saline with Tween-80): 93 % of control

O=C(NC(Cc1ccccc1)C(=O)CBr)OCc1ccccc1 (stereo unspecified)
T/C (dose: 12.5 mg/kg/injection, schedule: Q01DX001 (ip), vehicle: saline with Tween-80): 100 % of control
T/C (dose: 25.0 mg/kg/injection, schedule: Q01DX001 (ip), vehicle: saline with Tween-80): 104 % of control
T/C (dose: 50.0 mg/kg/injection, schedule: Q01DX001 (ip), vehicle: saline with Tween-80): 109 % of control

N/C(=N\O)c1cn(C2OC(CO)C(O)C2O)c2ncnc(N)c12 (stereo unspecified)
T/C (dose: 2.5 mg/kg/injection, schedule: Q01DX009 (ip), vehicle: saline sonified): 154 % of control
T/C (dose: 5.0 mg/kg/injection, schedule: Q01DX009 (ip), vehicle: saline sonified): 159 % of control

CC/C(=C(\c1ccccc1)c1ccc(OCCNC)cc1)c1ccccc1
T/C [1]: 98 % of control
T/C [2]: 88 % of control
T/C [3]: 92 % of control

C=C(OP(=O)(OC)OC)Sc1ccccc1C
T/C (dose: 0.04 mg/kg/injection, schedule: Q01DX005 (ip), vehicle: Klucel (hydroxypropylcellulose) (HPC)): 105 % of control
T/C (dose: 0.09 mg/kg/injection, schedule: Q01DX005 (ip), vehicle: Klucel (hydroxypropylcellulose) (HPC)): 100 % of control
T/C (dose: 0.18 mg/kg/injection, schedule: Q01DX005 (ip), vehicle: Klucel (hydroxypropylcellulose) (HPC)): 106 % of control
T/C (dose: 0.37 mg/kg/injection, schedule: Q01DX005 (ip), vehicle: Klucel (hydroxypropylcellulose) (HPC)): 92 % of control
T/C (dose: 0.75 mg/kg/injection, schedule: Q01DX005 (ip), vehicle: Klucel (hydroxypropylcellulose) (HPC)): 100 % of control
T/C (dose: 1.5 mg/kg/injection, schedule: Q01DX005 (ip), vehicle: Klucel (hydroxypropylcellulose) (HPC)): 96 % of control
T/C (dose: 12.5 mg/kg/injection, schedule: Q01DX009 (ip), vehicle: Klucel (hydroxypropylcellulose) (HPC)): 100 % of control and 97 % of control
T/C (dose: 25.0 mg/kg/injection, schedule: Q01DX009 (ip), vehicle: Klucel (hydroxypropylcellulose) (HPC)): 102 % of control and 116 % of control
T/C (dose: 50.0 mg/kg/injection, schedule: Q01DX009 (ip), vehicle: Klucel (hydroxypropylcellulose) (HPC)): 111 % of control and 121 % of control
T/C (dose: 100.0 mg/kg/injection, schedule: Q01DX009 (ip), vehicle: Klucel (hydroxypropylcellulose) (HPC)): 105 % of control and 92 % of control

COc1cc([C@@H]2c3cc4c(cc3C[C@@H]3COC(=O)C32)OCO4)cc(OC)c1O (stereo partly specified)
T/C [4]: 100 % of control and 120 % of control
T/C [5]: 107 % of control

CCC(C(=O)NNC(=O)c1cc(OC)c(OC)c(OC)c1)c1ccccc1 (stereo unspecified)
T/C (dose: 12.5 mg/kg/injection, schedule: Q01DX009 (ip), vehicle: saline with Tween-80): 105 % of control
T/C (dose: 25.0 mg/kg/injection, schedule: Q01DX009 (ip), vehicle: saline with Tween-80): 97 % of control
T/C (dose: 50.0 mg/kg/injection, schedule: Q01DX009 (ip), vehicle: saline with Tween-80): 98 % of control
T/C (dose: 100.0 mg/kg/injection, schedule: Q01DX009 (ip), vehicle: saline with Tween-80): 98 % of control

CC12OC1C(=O)C1C3C=CC(C3)C1C2=O (stereo unspecified)
T/C (dose: 75.0 mg/kg/injection, schedule: Q04DX002 (ip), vehicle: saline with Tween-80): 96 % of control
T/C (dose: 150.0 mg/kg/injection, schedule: Q04DX002 (ip), vehicle: saline with Tween-80): 96 % of control
T/C (dose: 300.0 mg/kg/injection, schedule: Q04DX002 (ip), vehicle: saline with Tween-80): 97 % of control

CC(C)=C[C@@H]1c2c(c3ccccc3n(C)c2=O)O[C@H]2c3c(c4ccccc4n(C)c3=O)OC(C)(C)[C@@H]12
T/C [6]: 99 % of control
T/C [7]: 100 % of control
T/C [8]: 100 % of control

CCCCN1NC1(C)c1ccccc1 (stereo unspecified)
T/C [6]: 108 % of control
T/C [7]: 104 % of control
T/C [8]: 112 % of control

Cc1nnc(NN=O)nc1C
T/C (dose: 3.12 mg/kg/injection, schedule: Q01DX009 (ip), vehicle: water): 96 % of control
T/C (dose: 6.25 mg/kg/injection, schedule: Q01DX009 (ip), vehicle: water): 100 % of control
T/C (dose: 12.5 mg/kg/injection, schedule: Q01DX009 (ip), vehicle: water): 105 % of control and 98 % of control
T/C (dose: 25.0 mg/kg/injection, schedule: Q01DX009 (ip), vehicle: water): 104 % of control and 106 % of control
T/C (dose: 50.0 mg/kg/injection, schedule: Q01DX009 (ip), vehicle: water): 99 % of control and 101 % of control and 105 % of control
T/C (dose: 100.0 mg/kg/injection, schedule: Q01DX009 (ip), vehicle: water): 96 % of control

O=C1OI(OI2OC(=O)c3ccccc32)c2ccccc21
T/C [1]: 102 % of control and 116 % of control
T/C [2]: 104 % of control and 92 % of control
T/C [3]: 100 % of control and 101 % of control and 113 % of control
T/C (dose: 120.0 mg/kg/injection, schedule: Q01DX005 (ip), vehicle: Klucel (hydroxypropylcellulose) (HPC)): 101 % of control and 113 % of control

Cc1cc2nc3c(C4OCC(O)C4O)nn(-c4ccc(F)cc4)c3nc2cc1C (stereo unspecified)
T/C (dose: 12.5 mg/kg/injection, schedule: Q01DX005 (ip), vehicle: Klucel (hydroxypropylcellulose) (HPC)): 95 % of control
T/C (dose: 25.0 mg/kg/injection, schedule: Q01DX005 (ip), vehicle: Klucel (hydroxypropylcellulose) (HPC)): 90 % of control
T/C (dose: 50.0 mg/kg/injection, schedule: Q01DX005 (ip), vehicle: Klucel (hydroxypropylcellulose) (HPC)): 88 % of control

Cc1ccc(S(=O)(=O)OCCN(CCOS(=O)(=O)c2ccc(C)cc2)c2ccc(C=O)cc2)cc1
T/C (dose: 0.78 mg/kg/injection, schedule: Q04DX003 (ip), vehicle: saline with Tween-80): 100 % of control
T/C (dose: 1.56 mg/kg/injection, schedule: Q04DX003 (ip), vehicle: saline with Tween-80): 113 % of control
T/C (dose: 3.13 mg/kg/injection, schedule: Q04DX003 (ip), vehicle: saline with Tween-80): 100 % of control
T/C (dose: 12.5 mg/kg/injection, schedule: Q04DX003 (ip), vehicle: saline with Tween-80): 154 % of control
T/C (dose: 25.0 mg/kg/injection, schedule: Q04DX003 (ip), vehicle: saline with Tween-80): 159 % of control
T/C (dose: 66.0 mg/kg/injection, schedule: Q04DX003 (ip), vehicle: saline with Tween-80): 158 % of control
T/C (dose: 100.0 mg/kg/injection, schedule: Q04DX003 (ip), vehicle: saline with Tween-80): 170 % of control and 172 % of control and 187 % of control
T/C (dose: 150.0 mg/kg/injection, schedule: Q04DX003 (ip), vehicle: saline with Tween-80): 183 % of control
T/C (dose: 200.0 mg/kg/injection, schedule: Q01DX009 (ip), vehicle: saline with Tween-80): 95 % of control
T/C (dose: 200.0 mg/kg/injection, schedule: Q04DX003 (ip), vehicle: saline with Tween-80): 162 % of control

O=S(=O)(F)c1ccc(O)cc1
T/C (dose: 15.0 mg/kg/injection, schedule: Q01DX005 (ip), vehicle: saline): 96 % of control
T/C (dose: 30.0 mg/kg/injection, schedule: Q01DX005 (ip), vehicle: saline): 99 % of control
T/C (dose: 60.0 mg/kg/injection, schedule: Q01DX005 (ip), vehicle: saline): 99 % of control and 97 % of control

COc1ccc2c(-c3ccc(O)cc3)c(-c3ccccc3)c(=O)oc2c1
T/C [4]: 86 % of control
T/C [9]: 97 % of control
T/C [5]: 89 % of control

Cc1ccc(C=C(C#N)C#N)o1
T/C [4]: 102 % of control
T/C [9]: 105 % of control

CCn1c(=O)c(C#N)c2n(CC)c3ccccc3n2c1=O
T/C (dose: 3.75 mg/kg/injection, schedule: Q01DX005 (ip), vehicle: saline with Tween-80): 100 % of control
T/C (dose: 7.5 mg/kg/injection, schedule: Q01DX005 (ip), vehicle: saline with Tween-80): 100 % of control
T/C (dose: 15.0 mg/kg/injection, schedule: Q01DX005 (ip), vehicle: saline with Tween-80): 100 % of control

FC(F)(F)c1c[nH]cc1C(F)(F)F
T/C (dose: 50.0 mg/kg/injection, schedule: Q04DX002 (ip), vehicle: Klucel (hydroxypropylcellulose) (HPC)): 109 % of control

O=C(C1=Cc2ccccc2OC1)N1CCN(c2ccccc2Cl)CC1
T/C (dose: 100.0 mg/kg/injection, schedule: Q04DX003 (ip), vehicle: Klucel (hydroxypropylcellulose) (HPC)): 106 % of control
T/C (dose: 200.0 mg/kg/injection, schedule: Q04DX003 (ip), vehicle: Klucel (hydroxypropylcellulose) (HPC)): 101 % of control
T/C (dose: 400.0 mg/kg/injection, schedule: Q04DX003 (ip), vehicle: Klucel (hydroxypropylcellulose) (HPC)): 88 % of control

Cc1nn(C(N)=S)c(C)c1N=Nc1ccc(Cl)cc1Cl
T/C (dose: 50.0 mg/kg/injection, schedule: Q04DX002 (ip), vehicle: saline with Tween-80): 101 % of control and 105 % of control
T/C (dose: 600.0 mg/kg/injection, schedule: Q04DX002 (ip), vehicle: saline with Tween-80): 90 % of control
